In patent US20110224197A1, “PYRIMIDINES AND PYRIDINES USEFUL AS INHIBITORS OF PROTEIN KINASES” (Vertex Pharmaceuticals Incorporated, priority 2008, published 2011):

What was measured:
CRMP2 = CRMP2 Phosphorylation Assay; type: cell-based, rat; conditions: E16 hippocampal neurons treated for seven days
Procedure: GSK-3 phosphorylation regulates CRMP2 which is involved in the control of axon outgrowth and branching (Yoshimura et al., 2005 Cell, Kim et al. 2006 Neuron). Phosphorylation of CRMP2 by GSK-3 reduces CRMP2 binding to microtubules and thereby reduces axon elongation and branching. Conversely, inhibition of GSK-3, especially at levels that selectively affect TYR residue autophosphorylation, enhances these phenotypes. Compounds are tested in E16 rat hippocampal or cortical neurons to determine the ability to increase the level of axonal branching.
1 mg/ml stock of PDL is diluted into 100 μg/mL in DI water. The glass coverslips are coated for at least 1 hour at 37° C. prior to doing the dissection. PDL is aspirated and the plates are rinsed with PBS and air-dried in hood.
Cortical or hippocampal lobes are combined with 9 mL of Base media (Neurobasal+Pen/Strep) and put on ice. 1 mL of 10× trypsin solution is added and the Mixture is swirled gently. The tissue is then digested via incubation in a 37° C. waterbath for 20 minutes. After 20 minutes, 10 μL/mL DNase (100 μL DNase) is added and the mixture is incubated for another 5 minutes.
The cells are spun at 1000 rpm for 1 minute. The enzyme solution is then removed without removing any of the brain fragments sitting on the bottom. […] The cells are counted in a hemacytometer and seeded at 50,000 cells/well in a 12 well plate. […]

β-catenin = β-catenin in brain, Post Stroke Model II; type: in vivo, rat; conditions: all doses
Procedure: To track the activity of Compound I-37 in the CNS of rats subjected to MCAO, brains were removed and protein lysate was obtained (as described herein) from both vehicle treated and compound treated animals at the termination of the study. Lysates were analyzed by Western blot and probed for GSK-3α/β pTYR levels.
Protein lysate is obtained from the brains of all vehicle and compound-treated animals and is processed for biomarker analysis of GSK3α/β pTYR and β-catenin by Western blot assay to ensure compound activity on the target.

Structure (SMILES): Cc1nc(-c2ccccc2Cl)nc(Nc2n[nH]c3ncc(F)cc23)c1C [Compound I-37, N-(2-(2-chlorophenyl)-5,6-dimethylpyrhnidin-4-yl)-5-fluoro-1H-pyrazolo[3,4-b]pyridin-3-amine]
- Inhibition of GSK-3 phosphorylation of substrate CRMP-2 (CRMP2): correlated with inhibition of GSK-3 pTYR
- induction of β-catenin (β-catenin): no induction
